The values that follow come from patent publication US20100197610A1, “FRUCTOSE 1, 6 BISPHOSPHATE - A NOVEL ANTICONVULSANT DRUG” (Baylor College of Medicine, priority 2007, published 2010).

The nature of data set [1]: in vivo. Details: species or system rats. The following applies: Sprague-Dawley, rat, po. As to the method:
Actual levels of FDP were determined by monitoring absorbance of reduced nicotinamide adenine dinucleotide (NADH) and treating the sample with aldolase (EC 4.1.2.13, 45 units mg-1 diluted 1:27 with distilled water), the enzyme which cleaves FDP into dihydroxyacetone phosphate (DAP) and D-glyceraldehyde 3-phosphate (GAP). DAP and GAP are interconverted by the enzyme triosephosphate isomerase (TIM, EC 5.3.3.1, 5290 units mg-1 diluted 1:120 with distilled water). Glycerol-3-phosphate dehydrogenase (GDH, EC 1.1.1.8, 252 units mg-1 diluted 1:100 with distilled water) catalyzes the reduction of DAP by NADH. For the FDP measurements, 1.5 ml of tetraethyl ammonium buffer (TEA, 0.4 mol l-1, pH 7.6 with EDTA 40 mmol l-1) was added to 1 ml of the sample in a 4 ml cuvette. […] After 5 min the absorbance was read 3 times at 340 nm, each reading 3 min apart. The average of these readings is the initial absorbance (Ai). This step removes any DAP or GAP in the sample and determines the baseline absorbance. […] Nine minutes after addition of the aldolase, the final absorbance (Af) was determined by 3 readings at 340 nm, each 6 minutes apart. The concentration of FDP in the sample was proportional to the difference in the initial and final absorbance. […] Levels of FDP in blood were determined per ml, while levels in tissue samples were determined as a function of tissue weight. […]

In data set [2] the test system is PTZ-induced generalized tonic-clonic seizures. As to the kind of experiment: PTZ model of acute seizures. It counts as in vivo, Sprague Dawley rats. As to the method:
All animal experiments were carried out in accordance with the National Institutes of Health guide for the care and use of laboratory animals (NIH publication 8023, revised 1996) and with the approval of the local Animal Use Committee. Unless indicated, all chemicals were obtained from Sigma Chemical Co (St. Louis Mo.). Male, Sprague Dawley rats weighing 50-74 g (young) or 147-309 g (adult) were used in this study. Acute seizures were induced by kainic acid (KA; Ocean Produce Int., Canada), pilocarpine or pentylenetetrazole (PTZ) as previously described (Lian et al 2006). These models were chosen because they initiate seizures by different mechanisms and the seizures have a relatively gradual onset compared to seizures initiated by stimulation. There was no difference in the body weight of the animals receiving the different convulsants. For pilocarpine, kainic acid and PTZ, the mean weights were 219±5 g (range 163-275 g), 215±7 g (range 183-258 g), and 216±13 g (range 147-309 g), respectively. The animals in the drug treatment groups were not different in weight from the animals in the control groups.
After administration of KA (10 mg/kg, ip), pilocarpine (scopolamine methyl bromide 1 mg/kg, s.c followed 15 min later by 300 mg/kg, ip pilocarpine) or PTZ (50 mg/kg, ip) (Lian et al., 2006), animals were continuously monitored for seizure activity for at least 5 h after KA or pilocarpine and for 30 min after PTZ. Behavioral seizures were scored by an investigator blinded to the treatment. Latency to the first wet dog shake after KA, latency to the first forelimb clonus (after pilocarpine, kainic acid or PTZ) and the score and duration of seizures were measured. When at least 1 hour had passed without any head bobbing (for pilocarpine) or any wet dog shakes (for KA), seizures were considered over. Status epilepticus lasting longer than 4 hours (for KA) or 5 hours (for pilocarpine) were assigned 4 and 5 hours for seizure duration. For animals receiving PTZ, the seizure duration was defined as the period of tonic-clonic seizures. EEG recording in the hippocampus was conducted as previously described (Lian et al., 2004). After anesthesia, a recording electrode was placed in a burr hole centered at 3.0 mm posterior to bregma, 1.8 mm lateral to the midline and then lowered 3.0 mm. A ground screw and wire was placed over the frontal region in another burr hole. This assembly was fixed to the skull with dental cement.
Adult rats received either D-F1,6BP, sodium valproate (VPA, 0.3 g/kg), 2-DG (0.25, 0.5 g/kg) or normal saline (vehicle) intraperitoneally followed 1 h later by one of the convulsants. The dose for VPA was based on experimental evidence that doses from 0.1 to 0.4 g/kg (ip) are effective in animal models (Bough and Eagles, 2001; Manent et al., 2007). Three doses of F1,6BP (0.25, 0.5 and 1 g/kg) were tested with this dosing schedule. Two additional groups were administered F1,6BP (0.5 or 1 g/kg, n=5) after pilocarpine. In this experiment, the F1,6BP was given intraperitoneally at the first behavioral seizure, which was chewing movements of the jaw. Two additional sets of animals were fed the classic ketogenic diet (No. F3666; Bio-Serv, Frenchtown, N.J.). One set of animals was given the diet beginning on postnatal day 22-26 (KD-Yng) and maintained on this diet for 4 weeks. Thus the seizures were tested in this group when the animals had reached approximately the same age (50-54 days) as the majority of the animals tested.
The latency to seizure onset, seizure score and seizure duration were averaged across animals in each group. Comparisons between groups were done with an analysis of variance with Bonferroni post hoc test. Statistical difference was defined as p<0.05.

For data set [3] the following is noted: Markov et al., 2000; cited from earlier work.

In turn, `O=C(COP(=O)(O)O)[C@@H](O)[C@H](O)[C@H](O)COP(=O)(O)O` [F1,6BP, Fructose-1,6-bisphosphate] yielded a concentration at 7 days in data set [1] of 22200 ± 3300 ng/mL. The “FDP levels in the brain” value in data set [1] (7 days) stood at 0.50 ± 0.024 mg/g. Besides, the “latency to the seizures” value in data set [2] (F1,6BP 0.25 g/kg, n=6) amounted to 107 ± 6 s; in data set [2] (F1,6BP 0.5 g/kg, n=6) it was 161 ± 16 s; in data set [2] (F1,6BP 1 g/kg, n=7), 259 ± 32 s. Besides, the seizure duration in data set [2] (F1,6BP 0.25 g/kg, n=6) is 18 ± 2 s; in data set [2] (F1,6BP 0.5 g/kg, n=6) it was 12 ± 1 s; in data set [2] (F1,6BP 1 g/kg, n=7) it was 11 ± 3 s. The “animals with no seizures” value in data set [2] (F1,6BP 1 g/kg) is “Three out of 8”. Further, the “FDP in blood of humans after administration of FDP” value in data set [3] is 3.39 mg/dL.
